Key:
corn gene expression = test: RNAseq of corn seedlings, variability of gene expression (FIGS. 17-19); format: in vivo
Excerpt: Plants colonized by Trichoderma show highly focused and reproducible patterns of gene expression. Uncolonized plants show highly variable gene expression. We propose that gene expression in plants colonized by Trichoderma responds specifically to that colonization and further that Trichoderma redirects plant gene expression to more targeted biological processes supporting Trichoderma niche development. Gene expression in uncolonized plants responds to the entire set of environmental factors present with relatively little process hierarchy. FIG. 17 depicts a representation of all gene expression in corn seedlings exposed to various seed treatments versus an untreated seed in both standard and drought conditions. FIG. 17 further groups the applicable replicates in order to convey variability, and data sets refer to principal component analysis, in order to evidence variability. All samples with the exception of the Trichoderma metabolite (1-Octene-3-ol), are root apical meristem (RAM) measurements. The sampling occurred from seeds that were grown for seven days before sampling. Observed variability was high in corn gene expression in standard and drought conditions. (See untreated). […] (see SabrEx and Oct). Thus, untreated plants are busy responding to a lot of environmental factors, Trichoderma strain treatment/1-Octene-3-ol treated plants are controlled somewhat by the treatment, which supports findings in previous RNAseq experiments, where correlation is shown by the reduction in microbiome diversity in the field, in the reduction of error bars in field performance data. This is a clear benefit of Trichoderma strain treatment and metabolite (1-Octene-3-ol). Reduction of variable performance in the field is therefore because the plant gene expression has been remodeled or refined by Trichoderma. FIGS. 18A-B depict multidimensional scaling plots of corn gene expression when colonized by Trichoderma, particularly, 2-Trichoderma strain treatment and untreated in unstressed conditions. […]

rhizosphere inhabitants = conditions: in vivo
Description: A survey of rhizosphere inhabitants in a corn trial with control, Trichoderma strain treatment for corn (2 ABM Trichoderma strains), [MUT] (ABM Trichoderma+Bacillus strains), or Trichoderma metabolite (1-Octene-3-ol) seed treatments was made. The organism lifestyle metadata were analyzed for each treatment.

maize gene expression = test: Differential gene expression (Blast 2Go DGE) in maize versus control (FIGS. 20-25); format: in vivo
Description: Turning to FIGS. 20-24, differential gene expression (Blast 2Go DGE) is measured, wherein the corresponding legend of FIG. 20 presents comparison to a control, wherein the higher scale shown (color or patterned), the higher level of upregulation has occurred.
The lab plants were grown in conical tubes with nutrient bath and to simulate osmotic stress from drought they added a polyethylene glycol (PEG) solution to the tubes.
FIG. 25 depicts a table of changes in corn gene expression versus an untreated control in RNAseq experiments of FIGS. 20-24. Reference to “Lab (sterile, no soil)” is the data from the conical tube experiments of FIG. 23 and FIG. 24.

For `C=CC(O)CCCCC` (centres unmarked) [1-Octene-3-ol], the “Reproducibility of expression pattern (multidimensional scaling plot)” value (corn gene expression; FIGS. 18A-B, unstressed conditions per legend) was “generally more reproducible expression pattern than the untreated”, the “Reproducibility of expression pattern (multidimensional scaling plot)” value (corn gene expression; FIGS. 19A-B, drought conditions per legend) was “generally more reproducible expression pattern than the untreated” and the “Effect on variability of overall corn gene expression (principal component analysis)” value (corn gene expression; seedlings grown seven days, standard and drought conditions, FIG. 17) was “focusses gene expression”. The “Plant disease resulting from rhizosphere pathogens” value (rhizosphere inhabitants) was “did not result in plant disease” and the Shoot responses upregulated (maize gene expression) was “Abiotic stimulus, water deprivation, and chemical stimulus”.

From patent US20200170259A1, “COMPOSITIONS AND METHODS FOR INDUCING PLANT GENE EXPRESSION AND ALTERING PLANT MICROBIOME COMPOSITION FOR IMPROVED CROP PERFORMANCE” (ADVANCED BIOLOGICAL MARKETING, INC., priority 2018, published 2020)
